US10669272B2, “Substituted naphthyridinone compounds useful as T cell activators” (BRISTOL-MYERS SQUIBB COMPANY, priority 2018, dated 2020)
Where two headings read alike, the source gives them in different places.

Columns and labels:
human DGKα = molecular target: T1, human DGKα (Homo sapiens, UniProt P23743); test: DGKα LIPGLO assay (extruded liposome substrate), in vitro DGK inhibition; type: biochemical; details: read-out: DGKa LIPGLO IC50
T1 construct: TVMV protease cleavage site (C); Hexa-His (C); made in house; host or cells: Sf9 insect cells (baculovirus, Bac-to-Bac)
T1 sequence (P23743 with tags, fused parts or gaps): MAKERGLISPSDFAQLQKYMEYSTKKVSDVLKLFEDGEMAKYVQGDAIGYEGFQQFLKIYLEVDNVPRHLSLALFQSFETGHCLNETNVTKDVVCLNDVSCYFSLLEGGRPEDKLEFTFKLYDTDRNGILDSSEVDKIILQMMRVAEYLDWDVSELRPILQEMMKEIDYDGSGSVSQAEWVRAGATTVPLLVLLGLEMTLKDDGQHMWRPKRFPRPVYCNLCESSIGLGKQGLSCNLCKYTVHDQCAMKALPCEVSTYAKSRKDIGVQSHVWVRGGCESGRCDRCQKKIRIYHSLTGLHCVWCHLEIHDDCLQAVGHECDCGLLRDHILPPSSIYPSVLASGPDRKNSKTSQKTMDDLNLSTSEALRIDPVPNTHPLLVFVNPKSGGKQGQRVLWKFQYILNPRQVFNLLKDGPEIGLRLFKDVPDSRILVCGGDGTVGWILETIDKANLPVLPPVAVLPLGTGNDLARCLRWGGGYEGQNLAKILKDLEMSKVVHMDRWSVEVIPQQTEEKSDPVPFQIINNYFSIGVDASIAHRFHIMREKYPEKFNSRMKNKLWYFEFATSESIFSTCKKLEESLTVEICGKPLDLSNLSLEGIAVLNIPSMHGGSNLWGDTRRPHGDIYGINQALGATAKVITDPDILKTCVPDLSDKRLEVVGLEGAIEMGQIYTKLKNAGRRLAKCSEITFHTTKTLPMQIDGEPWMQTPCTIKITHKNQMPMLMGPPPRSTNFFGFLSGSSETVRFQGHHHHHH

human DGKζ = molecular target: T2, human DGKζ (Homo sapiens, UniProt Q13574); test: DGKζ LIPGLO assay (extruded liposome substrate), in vitro DGK inhibition; type: biochemical; details: read-out: DGKz LIPGLO IC50
T2 construct: TVMV protease cleavage site (C); Hexa-His (C); made in house; host or cells: Sf9 insect cells (baculovirus, Bac-to-Bac)
T2 sequence (Q13574 with tags, fused parts or gaps isoform Q13574-4): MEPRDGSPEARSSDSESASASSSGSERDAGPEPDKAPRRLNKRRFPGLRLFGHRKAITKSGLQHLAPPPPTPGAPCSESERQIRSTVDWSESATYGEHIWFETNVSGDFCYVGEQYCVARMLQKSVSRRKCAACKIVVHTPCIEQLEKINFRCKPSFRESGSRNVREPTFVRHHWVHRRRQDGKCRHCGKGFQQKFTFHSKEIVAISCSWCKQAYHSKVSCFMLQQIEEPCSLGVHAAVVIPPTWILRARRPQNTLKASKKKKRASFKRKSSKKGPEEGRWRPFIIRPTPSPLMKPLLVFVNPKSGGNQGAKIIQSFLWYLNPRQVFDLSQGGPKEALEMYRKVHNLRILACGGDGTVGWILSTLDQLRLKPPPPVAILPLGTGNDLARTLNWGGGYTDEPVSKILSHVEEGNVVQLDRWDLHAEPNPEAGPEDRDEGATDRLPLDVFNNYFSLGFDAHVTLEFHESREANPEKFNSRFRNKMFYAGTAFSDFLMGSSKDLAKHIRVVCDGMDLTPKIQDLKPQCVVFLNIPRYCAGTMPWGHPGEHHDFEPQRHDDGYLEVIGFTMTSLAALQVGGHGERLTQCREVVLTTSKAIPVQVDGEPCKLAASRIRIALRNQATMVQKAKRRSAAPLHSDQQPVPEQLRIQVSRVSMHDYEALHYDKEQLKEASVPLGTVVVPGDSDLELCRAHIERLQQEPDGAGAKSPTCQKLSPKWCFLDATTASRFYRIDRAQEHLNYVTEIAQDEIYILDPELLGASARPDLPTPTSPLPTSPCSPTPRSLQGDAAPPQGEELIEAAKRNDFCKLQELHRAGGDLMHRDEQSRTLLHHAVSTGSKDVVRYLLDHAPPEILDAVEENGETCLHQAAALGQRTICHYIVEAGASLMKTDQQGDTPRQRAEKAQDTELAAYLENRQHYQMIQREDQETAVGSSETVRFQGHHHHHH

Human venous whole blood = test: Human whole blood IFN-γ assay; type: cell-based; details: human whole blood, read-out: INFg Whole Blood Normalized Agonist EC50;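 note: blood from healthy donors exposed to compound for 1 h before stimulation with anti-CD3 and anti-CD28 at 1 µg/mL each, IFN-γ quantified in supernatant by AlphaLISA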
[1] = normalized to 3 μM reference compound with anti-CD3 plus anti-CD28 as 100% activation
[2] = anti-CD3 plus anti-CD28, 24 hours, 3 μM reference compound = 100% activation
[3] = Homo sapiens, 24 h, normalized to 3 μM reference compound with anti-CD3 plus anti-CD28 as 100% activation
[4] = Homo sapiens, 24 h, anti-CD3 plus anti-CD28, 24 hours, 3 μM reference compound = 100% activation

SMILES | IC50 (human DGKα; liposome (LIPGLO) assay) | IC50 (human DGKζ; liposome (LIPGLO) assay) | IC50 (human DGKα; DGKα liposome (LIPGLO) assay) | IC50 (human DGKζ; DGKζ liposome (LIPGLO) assay) | EC50 (Human venous whole blood; [1]) | EC50 (Human venous whole blood; [2]) | EC50 (Human venous whole blood; [3]) | EC50 (Human venous whole blood; [4])
Cc1ccc(C(c2ccc(C)c(Cl)c2)N2C[C@H](C)N(c3cc(=O)n(C)c4ccc(C#N)nc34)C[C@H]2C)nc1 (stereo partly drawn) [Example 399, 8-((2S,5R)-4-((3-chloro-4-methylphenyl)(5-methylpyridin-2-yl)methyl)-2,5-dimethylpiperazin-1-yl)-5-methyl-6-oxo-5,6-dihydro-1,5-naphthyridine-2-carbonitrile] | 2.3 µM | 0.69 µM | – | – | 0.57 µM | – | – | –
Cc1ccc(C(c2ccc(Cl)cc2)N2CCN(c3c(C#N)c(=O)n(C)c4ccc(C#N)nc34)C[C@H]2C)cc1 (single isomer, unassigned) [Example 945] | – | – | 9.8 µM | 9.3 µM | – | 1.6 µM | – | –
CC(c1cccc2ncccc12)N1C[C@H](C)N(c2cc(=O)n(C)c3ccc(C#N)nc23)C[C@H]1C (single isomer, unassigned) [Example 639] | 98 µM | 18 µM | – | – | 20 µM | – | – | –
CC[C@H]1CN(C(C)c2cc(F)cc(OC(F)(F)F)c2)[C@H](C)CN1c1cc(=O)n(C)c2ccc(C#N)nc12 (stereo partly drawn) [Example 1384] | 9.4 µM | 0.26 µM | – | – | – | – | 8 µM | –
CC(c1ccc(C(F)(F)F)cc1)N1CCN(c2c(C#N)c(=O)n(C)c3ccc(C#N)nc23)C[C@H]1C (single isomer, unassigned) [Example 960] | – | – | 6.7 µM | 6.6 µM | – | – | – | 20 µM
CC(c1ccc2c(c1)OC(F)(F)O2)N1C[C@H](C)N(c2cc(=O)n(C)c3ccc(C#N)nc23)C[C@H]1C (single isomer, unassigned) [Example 655] | 4.2 µM | 1.3 µM | – | – | 6.6 µM | – | – | –
CCc1ccc(C(c2ccc(F)cc2)N2C[C@H](C)N(c3c(C#N)c(=O)n(C)c4ccc(C#N)nc34)C[C@H]2C)cc1 (single isomer, unassigned) [Example 812] | – | – | 17 µM | 0.51 µM | – | 2.8 µM | – | –
Cc1ccc(CN2CCN(c3c(C#N)c(=O)n(C)c4ccc(C#N)nc34)C[C@H]2C)cc1F [Example 1002] | – | – | 2.7 µM | 4.7 µM | – | – | – | 5.5 µM
COC(=O)C1CN(c2cc(=O)n(C)c3ccc(C#N)nc23)CCN1C(c1ccc(F)cc1)c1ccc(F)cc1OC (single isomer, unassigned) [Example 70, Methyl 4-(6-cyano-1-methyl-2-oxo-1,2-dihydro-1,5-naphthyridin-4-yl)-1-((4-fluoro-2-methoxyphenyl)(4-fluorophenyl)methyl)piperazine-2-carboxylate] | 220 µM | 19 µM | – | – | 10 µM | – | – | –
Cc1ccc(C(c2cccc(F)c2)N2C[C@H](C)N(c3cc(=O)n(C)c4ccc(C#N)nc34)C[C@H]2C)cn1 (single isomer, unassigned) [Example 390] | 17 µM | 7.4 µM | – | – | 2.6 µM | – | – | –
CC(C)c1noc(C(c2ccc(F)cc2)N2C[C@H](C)N(c3cc(=O)n(C)c4ccc(C#N)nc34)C[C@H]2C)n1 (single isomer, unassigned) [Example 747] | – | – | 0.3 µM | 0.069 µM | – | 0.18 µM | – | –
CC(c1cc(OC(F)(F)F)ccc1F)N1C[C@H](C)N(c2cc(=O)n(C)c3ccc(C#N)nc23)C[C@H]1C (stereo partly drawn) [Example 1203] | 3 µM | 1.6 µM | – | – | 20 µM | – | – | –
C[C@@H]1CN(c2cc(=O)n(C)c3ccc(C#N)nc23)[C@@H](C)CN1Cc1ccc(OC(F)(F)F)cc1Br [Example 593] | 3.1 µM | 5.9 µM | – | – | – | – | 1.2 µM | –
CC(c1nc(C2CC2)no1)N1C[C@H](C)N(c2c(C#N)c(=O)n(C)c3ccc(C#N)nc23)C[C@H]1C (single isomer, unassigned) [Example 1306] | 9.4 µM | 1.1 µM | – | – | – | – | 2.9 µM | –
C[C@@H]1CN(c2c(C#N)c(=O)n(C)c3ccc(C#N)nc23)CCN1C(c1ccc(F)cc1)c1cccc(F)c1 (stereo partly drawn) [Example 880] | – | – | 6.5 µM | 2.5 µM | – | 20 µM | – | –
C[C@@H]1CN(c2cc(=O)n(C)c3ccc(C#N)nc23)[C@@H](C)CN1C(c1ccc(F)cc1)c1nc(C2CN(C)C2)no1 (single isomer, unassigned) [Example 1299] | 89 µM | 26 µM | – | – | 15 µM | – | – | –
COC(=O)C1CN(c2cc(=O)n(C)c3ccc(C#N)nc23)CCN1C(c1ccc(Cl)cc1)c1ccc(Cl)cc1 (single isomer, unassigned) [Example 96, methyl 1-(bis(4-chlorophenyl)methyl)-4-(6-cyano-1-methyl-2-oxo-1,2-dihydro-1,5-naphthyridin-4-yl)piperazine-2-carboxylate] | 240 µM | 14 µM | – | – | 13 µM | – | – | –

Second part, led by results:

IC50 (human DGKα; liposome (LIPGLO) assay) | IC50 (human DGKζ; liposome (LIPGLO) assay) | IC50 (human DGKα; DGKα liposome (LIPGLO) assay) | IC50 (human DGKζ; DGKζ liposome (LIPGLO) assay) | SMILES | EC50 (Human venous whole blood; [1]) | EC50 (Human venous whole blood; [2]) | EC50 (Human venous whole blood; [3]) | EC50 (Human venous whole blood; [4])
0.85 µM | 2.7 µM | – | – | CCC(c1ccc(C2CC2)cc1)N1C[C@H](C)N(c2cc(=O)n(C)c3ccc(C#N)nc23)C[C@H]1C (single isomer, unassigned) [Example 1221] | 4.2 µM | – | – | –
0.017 µM | 0.016 µM | – | – | CC[C@H]1CN(C(C)c2ccc(F)cc2F)[C@H](CC)CN1c1cc(=O)n(C)c2ccc(C#N)nc12 (single isomer, unassigned) [Example 1055] | 0.016 µM | – | – | –
0.084 µM | 1.4 µM | – | – | CC[C@@H]1CN(c2cc(=O)n(C)c3ccc(C#N)nc23)[C@@H](C)CN1C(c1ccc(F)cc1)c1ccon1 (single isomer, unassigned) [Example 1115] | 0.8 µM | – | – | –
0.98 µM | 0.45 µM | – | – | C[C@@H]1CN(c2cc(=O)n(C)c3ccc(C#N)nc23)[C@@H](C)CN1C(c1ccc(F)cn1)c1cccc2c1OC(C)(C)C2 (single isomer, unassigned) [Example 467] | 20 µM | – | – | –
0.056 µM | 0.4 µM | – | – | CC[C@@H]1CN(c2cc(=O)n(C)c3ccc(C#N)nc23)[C@@H](C)CN1C(c1ccc(F)cc1)c1ccon1 (single isomer, unassigned) [Example 1114] | 0.1 µM | – | – | –
0.3 µM | 0.049 µM | – | – | COC[C@@H]1CN(c2cc(=O)n(C)c3ccc(C#N)nc23)[C@@H](C)CN1C(c1ccc(F)cc1)c1ccc(C(F)(F)F)cn1 (stereo partly drawn) [Example 1401] | – | – | 0.47 µM | –
0.83 µM | 1.1 µM | – | – | C[C@@H]1CN(c2c(F)c(=O)n(C)c3ccc(C#N)nc23)[C@@H](C)CN1C(c1ccc(F)cc1)c1ccccc1F (stereo partly drawn) [Example 333, 7-fluoro-8-((2S,5R)-4-((2-fluorophenyl)(4-fluorophenyl)methyl)-2,5-dimethylpiperazin-1-yl)-5-methyl-6-oxo-5,6-dihydro-1,5-naphthyridine-2-carbonitrile] | – | – | 1.2 µM | –
2.1 µM | 2.4 µM | – | – | Cc1ccc(C(c2cccc(F)n2)N2C[C@H](C)N(c3cc(=O)n(C)c4ccc(C#N)nc34)C[C@H]2C)cc1 (single isomer, unassigned) [Example 478] | – | – | 3.8 µM | –
0.097 µM | 0.011 µM | – | – | CC[C@@H]1CN(c2cc(=O)n(C)c3ccc(C#N)nc23)[C@@H](C)CN1C(C)c1ccc(OC)cc1 (single isomer, unassigned) [Example 1350] | 0.03 µM | – | – | –
1.6 µM | 0.99 µM | – | – | CC[C@H]1CN(C(C)c2ccc(F)c(F)c2)[C@H](C)CN1c1cc(=O)n(C)c2ccc(C#N)nc12 (single isomer, unassigned) [Example 1140] | 3.4 µM | – | – | –
